One molecule from US11491245B2, “Gadolinium chelate compounds for use in magnetic resonance imaging” (BAYER PHARMA AKTIENGESELLSCHAFT, priority 2015, dated 2022) can be followed below.

Entries after “also recorded” stand apart in the source; their conditions may differ. Some results are limits rather than exact numbers.

Data set [1] can be described thus: Relaxivity measurements at 3.0 T. It counts as physicochemical. The note with it: 37° C., normalized to Gd, average ± standard deviation. The method, then:
Relaxivity measurements at 3.0 T were performed with a whole body 3.0 T MRI Scanner (Philips Intera, Philips Healthcare, Hamburg, Germany) using a knee-coil (SENSE-Knee-8, Philips Healthcare, Hamburg, Germany). The sample tubes (CryoTubetm Vials, Thermo Scientific 1.8 mL, Roskilde, Denmark) were positioned in 3 rows of 4 and 5 tubes in a plastic holder in a box filled with water. The temperature was adjusted to 37° C. For the MRI sequence, the shortest possible echo-time (TE) with 7.46 milliseconds was used. The inversion times were chosen to optimize the sequence to measure T1 values corresponding to the estimated T1 range of all relaxation times of contrast media containing solutions. The following inversion times (TIs) were applied: 50, 100, 150, 200, 300, 500, 700, 1000, 1400, 2100, 3200, and 4500 milliseconds. The sequence was run with a constant relaxation delay of 3.4 seconds after the registration of the last echo (variable TR in the range from 3450 to 7900 milliseconds). For details of the fit procedure, see Rohrer et. al. (Invest. Radiol. 2005; 40, 11: 715-724). The experimental matrix of the phantom measurement was 320×320.
The relaxivities were evaluated using three different concentrations of each compound (3 concentrations between 0.05 and 2 mM).
The T1 relaxation times of the Example compounds 1-6 were measured in water and human plasma. Human plasma preparation: For each experiment fresh blood was taken from a volunteer using 10 mL citrate-tubes (Sarstedt S-Monovette 02.1067.001, 10 mL, Citrate). The 10 mL citrate-tubes were carefully inverted 10 times to mix blood and anticoagulant and centrifuged for 15 minutes at 1811 g at room temperature (Eppendorf, Centrifuge 5810R).
The relaxivities ri (where i=1, 2) were calculated on the basis of the measured relaxation rates Ri in water and plasma: Ri=Ri(0)+ri[CGd], where Ri(0) represent the relaxation rate of the respective solvent and CGd the concentration of the compound normalized to the Gadolinium (Table 2).

Data set [2] in a line: Pharmacokinetic parameters in rats (blood plasma kinetic). It counts as in vivo, male rats (Han-Wistar). The method, then:
Pharmacokinetic parameters of the compound of Example 3 were determined in male rats (Han-Wistar, 220-230 g, n=3). The compound was administered as a sterile aqueous solution (52.5 mmol Gd/L) as a bolus in the tail vein of the animals. The dose was 0.1 mmol Gd/kg. Blood was sampled 1, 3, 5, 10, 15, 30, 60, 90, 120, 240, 360, 480 and 1440 min post injection and the Gd concentration was determined by Inductively Coupled Plasma Mass Spectroscopy (ICP-MS Agilent 7500a, Waldbronn, Germany). The blood level was converted to plasma concentrations by division by 0.625 (plasma fraction of rat blood, assuming strictly extracellular distribution). As a control, 3 animals were treated in the same way with Gadovist®, a low molecular weight contrast agent.
The fit of the obtained data to a three compartment model (Phoenix—WinNonlin) yielded the pharmacokinetic parameters which are shown in Table 3.

A short description of data set [3]: Chemical stability (autoclaving at 121° C.). The note with it: 5 mmol Gd/L in 10 mM Tris-HCl buffer, pH 7.4, 121° C. for 20 min. It counts as physicochemical.
Data set [4] in a line: Water solubility. It counts as physicochemical. The note with it: 10 mM Tris-HCl buffer, 20° C. The method, then:
The water solubility of the compounds was determined at room temperature (20° C.) in 0.5 mL buffer solution (10 mM Tris-HCl) in the microcentrifuge tubes (Eppendorf, 2.0 mL safe-lock caps). The solid compound was added stepwise to the buffer solution. The suspension was mixed using a shaker (Heidolph Reax 2000) and treated 5 min in an ultrasound bath (Bandelin, Sonorex Super RK255H) The suspension was stored at room temperature (20° C.) over night and final Gadolinium concentration was determined by inductively coupled plasma mass spectrometry (ICP-MS).

Data set [5] is described as follows: Off target activity screen (LeadProfilingScreen®, radioligand binding and enzyme assays). The note with it: commercial radioligand binding and enzyme assays.
The test system of data set [6] is GS9L brain tumors. Description: Contrast-enhanced MRI of brain tumors in rats. It counts as in vivo, male Fisher rats (F344). The note with it: GS9L rat brain tumors, 0.1 mmol Gd/kg bw vs Reference compound 1 0.1 mmol Gd/kg bw, FIG. 11A.
Data set [7] is described as follows: Gadolinium release after the addition of zinc and phosphate (transmetallation). The note with it: phosphate buffer pH 7.00, 2.5 mmol/L gadolinium complex, 2.5 mmol/L ZnCl2, 37° C., up to 72 h, FIG. 2.
Protocol: The technique is based on measurement of the evolution of the water proton paramagnetic longitudinal relaxation rate in phosphate buffer (pH 7.00, 26 mmol/L, KH2PO4 Merck, Hessen, Germany) containing 2.5 mmol/L gadolinium complex and 2.5 mmol/L ZnCl2 Sigma-Aldrich, Munich, Germany). […] The mixture was vigorously stirred, and 300 μL were taken out for the relaxometric study at 0 min, 60 min, 120 min, 3 h, 4 h, 5 h, 24 h, 48 h and 72 h. The measurements were performed on a MiniSpec mq60 spectrometer (Bruker Analytik, Karlsruhe, Germany) at 60 MHz and 37° C.
[8] abbreviates: male rats, 0.1 mmol Gd/kg bolus tail vein, mean.
The mark [9] stands for this setting: male rats, 0.1 mmol Gd/kg bolus tail vein, three compartment model, mean.

`CC(C(=O)NCC(=O)NCC(CNC(=O)CNC(=O)C(C)N1CCN(CC(=O)[O-])CCN(CC(=O)[O-])CCN(CC(=O)[O-])CC1)(CNC(=O)CNC(=O)C(C)N1CCN(CC(=O)[O-])CCN(CC(=O)[O-])CCN(CC(=O)[O-])CC1)CNC(=O)CNC(=O)C(C)N1CCN(CC(=O)[O-])CCN(CC(=O)[O-])CCN(CC(=O)[O-])CC1)N1CCN(CC(=O)[O-])CCN(CC(=O)[O-])CCN(CC(=O)[O-])CC1.[Gd+3].[Gd+3].[Gd+3].[Gd+3]` (centres unmarked) [Example 3, Tetragadolinium [4,10-bis(carboxylatomethyl)-7-{3,6,12,15-tetraoxo-16-[4,7,10-tris-(carboxylatomethyl)-1,4,7,10-tetraazacyclododecan-1-yl]-9,9-bis({[({2-[4,7,10-tris-(carboxylatomethyl)-1,4,7,10-tetraazacyclododecan-1-yl]propanoyl}amino)acetyl]-amino}methyl)-4,7,11,14-tetraazaheptadecan-2-yl}-1,4,7,10-tetraazacyclododecan-1-yl]acetate] showed a r1 human plasma in data set [1] (human plasma) of 10.2 ± 0.2 L/mmol/s. For the same molecule, in data set [1] (water), the r1 water amounted to 9.2 ± 0.3 L/mmol/s. Further, in data set [2] (setting [8]), the “AUC∞ Area under the curve (to infinity)” value is 9040 µmol·min/L; the “MRT Mean residence time” value is reported as 24.1 min; the “V1 + V2 Volume, compartments V1 + V2” value stood at 0.26 L/kg; the “V2 Volume, compartment V2” value was determined as 0.15 L/kg. In data set [2] (setting [8]), the “Vc (V1) Volume, central compartment V1” value came to 0.11 L/kg and the “Vd,ss Volume of distribution at steady state” value amounted to 0.28 L/kg. For the same molecule, in data set [2] (setting [9]), the “t½ α Half-life, compartment V1” value is listed as 1.7 min; the “t½ β Half-life, compartment V2” value turned out to be 18.2 min; the “t½ γ Half-life, compartment V3” value turned out to be 133 min. For the same molecule, the “pharmacokinetic profile (blood plasma kinetic)” value in data set [2] (rats, versus Gadovist®, FIG. 1) is on record as “comparable to that of Gadovist®”. Further, in data set [3], the “appearance of the solution after autoclaving” value was “still clear and colorless”. This molecule had a Solubility in data set [4] of more than 1400 mmol Gd/L. For the same molecule, the off target activity entry in data set [5] is recorded as “no critical finding”. Moreover, the “lesion-to-brain contrast at the same dose” value in data set [6] is “higher lesion-to-brain contrast and an excellent demarcation of the tumor rim”. For the same molecule, in data set [7], the “stability against transmetallation (relative longitudinal relaxation rate R1p(t)/R1p(0) versus time)” value is on record as “comparable to the high stability macrocyclic Reference compound 1 (Gadovist®); also recorded: comparable to the high stability of Reference compound 1 (Gadovist®)”.
